Assay results published in patent US20230263822A1, “MODULATION OF FACTOR 11 EXPRESSION” (Ionis Pharmaceuticals, Inc., priority 2008, published 2023).
Read-outs that look alike come from different tables or passages of the source.

Tests used:
[1] = mouse, in vivo, sc, 50 mg/kg
[2] = mouse, in vivo, sc, 50 mg/kg; remark: listed apart in the source
[3] = mouse, in vivo, sc, 50 mg/kg; remark: listed apart in the source
[4] = rat, in vivo, sc, 50 mg/kg
[5] = rat, in vivo, sc, 50 mg/kg; remark: listed apart in the source
[6] = rat, in vivo, sc, 50 mg/kg; remark: listed apart in the source

**Q.** What does the source list for “ISIS 416861: MOE gapmer, nucleobases 1275 to 1318 of SEQ ID NO: 1 (Table 8) (antisense GCGGACGGCATTGGTGCACA; MOE gapmer, wing and gap sizes not given here)”?
**A.** ALT [1]: 38 IU/L; AST [1]: 85 IU/L; Bilirubin [1]: 0.27 mg/dL; Cholesterol [1]: 133 mg/dL; BUN [2]: 23 mg/dL; HCT [3]: 48%; Lymphocyte [3]: 5119 cells/μL; Neutrophil [3]: 1122 cells/μL; Platelets [3]: 836 10^3/μL; RBC [3]: 9 10^6/μL; WBC [3]: 7 10^3/μL; hemoglobin [3]: 14 g/dL; monocytes [3]: 219 cells/μL; ALT [4]: 89 IU/L; AST [4]: 154 IU/L; Albumin [4]: 5; Bilirubin [4]: 0.15 mg/dL; BUN [5]: 22 mg/dL; Creatinine [5]: 39 mg/dL; Total urine protein [5]: 205 mg/dL; Urine protein/creatinine ratio [5]: 5.1; HCT [6]: 45%; Lymphocyte [6]: 12865; Neutrophil [6]: 1813; Platelets [6]: 1008; RBC [6]: 7.7 10^6/μL; WBC [6]: 15 10^3/μL; hemoglobin [6]: 14.6 g/dL

**Q.** What does the source list for “ISIS 416863: MOE gapmer, nucleobases 1275 to 1318 of SEQ ID NO: 1 (Table 8) (antisense CAGCGGACGGCATTGGTGCA; MOE gapmer, wing and gap sizes not given here)”?
**A.** ALT [1]: 41 IU/L; AST [1]: 101 IU/L; Bilirubin [1]: 0.24 mg/dL; Cholesterol [1]: 118 mg/dL; BUN [2]: 22 mg/dL; HCT [3]: 48%; Lymphocyte [3]: 5617 cells/μL; Neutrophil [3]: 1330 cells/μL; Platelets [3]: 1131 10^3/μL; RBC [3]: 9 10^6/μL; WBC [3]: 7 10^3/μL; hemoglobin [3]: 14 g/dL; monocytes [3]: 226 cells/μL; ALT [4]: 47 IU/L; AST [4]: 78 IU/L; Albumin [4]: 4; Bilirubin [4]: 0.13 mg/dL; BUN [5]: 29 mg/dL; Creatinine [5]: 73 mg/dL; Total urine protein [5]: 269 mg/dL; Urine protein/creatinine ratio [5]: 3.8; HCT [6]: 45%; Lymphocyte [6]: 14669; Neutrophil [6]: 1720; Platelets [6]: 674; RBC [6]: 7.6 10^6/μL; WBC [6]: 17 10^3/μL; hemoglobin [6]: 14.1 g/dL

**Q.** What does the source list for “ISIS 416866: MOE gapmer, nucleobases 1275 to 1318 of SEQ ID NO: 1 (Table 8) (antisense CTGGCAGCGGACGGCATTGG; MOE gapmer, wing and gap sizes not given here)”?
**A.** ALT [1]: 36 IU/L; AST [1]: 120 IU/L; Bilirubin [1]: 0.29 mg/dL; Cholesterol [1]: 113 mg/dL; BUN [2]: 22 mg/dL; HCT [3]: 51%; Lymphocyte [3]: 4621 cells/μL; Neutrophil [3]: 1201 cells/μL; Platelets [3]: 1045 10^3/μL; RBC [3]: 9 10^6/μL; WBC [3]: 6 10^3/μL; hemoglobin [3]: 15 g/dL; monocytes [3]: 211 cells/μL; ALT [4]: 41 IU/L; AST [4]: 78 IU/L; Albumin [4]: 4; Bilirubin [4]: 0.16 mg/dL; BUN [5]: 22 mg/dL; Creatinine [5]: 85 mg/dL; Total urine protein [5]: 486 mg/dL; Urine protein/creatinine ratio [5]: 6.2; HCT [6]: 44%; Lymphocyte [6]: 16834; Neutrophil [6]: 1916; Platelets [6]: 900; RBC [6]: 7.8 10^6/μL; WBC [6]: 20 10^3/μL; hemoglobin [6]: 14.0 g/dL

**Q.** With “ISIS 416867: MOE gapmer, nucleobases 1275 to 1318 of SEQ ID NO: 1 (Table 8) (antisense ACTGGCAGCGGACGGCATTG; MOE gapmer, wing and gap sizes not given here)” as the substance, how does the ALT [1] read?
**A.** 45 IU/L

**Q.** What about the AST [1] of the same substance?
**A.** 82 IU/L

**Q.** What about the Bilirubin [1] of the same substance?
**A.** 0.21 mg/dL

**Q.** And the Cholesterol [1]?
**A.** 144 mg/dL

**Q.** What about the BUN [2] of the same substance?
**A.** 20 mg/dL

**Q.** What about the HCT [3] of the same substance?
**A.** 47%

**Q.** And the Lymphocyte [3]?
**A.** 6078 cells/μL

**Q.** And the Neutrophil [3]?
**A.** 1404 cells/μL

**Q.** What about the Platelets [3] of the same substance?
**A.** 1006 10^3/μL

**Q.** And the RBC [3]?
**A.** 10 10^6/μL

**Q.** What about the WBC [3] of the same substance?
**A.** 8 10^3/μL

**Q.** And the hemoglobin [3]?
**A.** 14 g/dL

**Q.** What about the monocytes [3] of the same substance?
**A.** 188 cells/μL

**Q.** What about the ALT [4] of the same substance?
**A.** 47 IU/L

**Q.** And the AST [4]?
**A.** 126 IU/L

**Q.** What about the Albumin [4] of the same substance?
**A.** 4

**Q.** And the Bilirubin [4]?
**A.** 0.17 mg/dL

**Q.** And the BUN [5]?
**A.** 22 mg/dL

**Q.** And the Creatinine [5]?
**A.** 70 mg/dL

**Q.** And the Total urine protein [5]?
**A.** 217 mg/dL

**Q.** What about the Urine protein/creatinine ratio [5] of the same substance?
**A.** 3.1

**Q.** What about the HCT [6] of the same substance?
**A.** 45%

**Q.** What about the Lymphocyte [6] of the same substance?
**A.** 10405

**Q.** And the Neutrophil [6]?
**A.** 3044

**Q.** And the Platelets [6]?
**A.** 705

**Q.** And the RBC [6]?
**A.** 7.8 10^6/μL

**Q.** And the WBC [6]?
**A.** 14 10^3/μL

**Q.** What about the hemoglobin [6] of the same substance?
**A.** 14.0 g/dL
